The values below come from PMC5515057, “Protein sensing in living cells by molecular rotor-based fluorescence-switchable chemical probes” (Chemical Science, 2015).

The target of assay [1] is T1, O6-methylguanine-methyltransferase (MGMT) (Homo sapiens, UniProt P16455).
T1 construct: recombinant MGMT, about 26 kDa
T1 sequence (P16455 1-207): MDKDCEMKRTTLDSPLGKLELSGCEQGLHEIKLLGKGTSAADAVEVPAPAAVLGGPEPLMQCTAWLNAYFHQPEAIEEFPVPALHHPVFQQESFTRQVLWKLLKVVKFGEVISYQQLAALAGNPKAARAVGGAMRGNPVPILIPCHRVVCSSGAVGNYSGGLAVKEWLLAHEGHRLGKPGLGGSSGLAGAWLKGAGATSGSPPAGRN
Nature of the assay: fluorescence turn-on kinetics with recombinant MGMT, SDS-PAGE in-gel fluorescence, Job's plot; also HeLa S3 lysate labeling. Type of assay: binding. The following applies: read-out: fluorescence turn-on kinetics with recombinant MGMT, SDS-PAGE in-gel fluorescenc.

The target of assay [2] is T2, human carbonic anhydrase II (hCAII) (Homo sapiens, UniProt P00918).
T2 construct: gene CA2
The experiment in a line: fluorescence turn-on titration with hCAII in PBS; displaced by ethoxzolamide. Type of assay: binding.

For `N#C/C(=C\c1cc2c3c(c1)CCCN3CCC2)C(=O)NCc1ccc(COc2nc(N)nc3[nH]cnc23)cc1` [BG-CCVJ], the kinact/KI in assay [1] was roughly 715 M⁻¹ s⁻¹.
The Kd is the constant that tells how readily two partners part at equilibrium. A higher Kd goes with weaker binding. Turning to `N#CC(=Cc1cc2c3c(c1)CCCN3CCC2)C(=O)NCc1ccc(S(N)(=O)=O)cc1` [SA-CCVJ], the Kd in assay [2] was roughly 70 nM.
